One experiment has as its system Salmonella typhimurium. It is filed as cell-based.
For experiment [1], the system named is Streptococcus sp. 1 X A7 (Strep A7). The experiment is classed as cell-based.
Experiment [2] concerns Clostridium perfringens (Cp). The experiment is classed as cell-based. Particulars: Anaerobic, 6 h, 37° C.
Experiment [3] relates to Streptococcus sp. 1 X C15 (Strep C15). The experiment is classed as cell-based.
The test system of experiment [4] is E. coli strain 046 (E.C. 046). It is filed as cell-based.
For experiment [5], the system named is Bacteroides fragilis (Bf). Nature of the experiment: Antimicrobial growth inhibition, Bf. It is filed as cell-based. Particulars: Anaerobic, 6 h, 37° C.
Experiment [6] is described as follows: Growth promotion and feed utilization in chicks. The experiment is classed as in vivo, chicks (broiler cockerels). The settings on record: 8 weeks.
Experiment [7] concerns antibiotic resistant E. coli (E.C. 324). The experiment is classed as cell-based. Particulars: Gram Neg., 6 h, 37° C., aerobic.
Experiment [8] concerns Eimeria tenella Eli Lilly Strain 65 (Lilly 65). Nature of the experiment: In vitro anticoccidial test in chick kidney cell monolayers. It is filed as cell-based. Particulars: 72 h, 3 days, read-out: % Inhibition of Coccidia.
[9] abbreviates: experiment set 1, 75 ppm in feed.
[10] abbreviates: experiment set 2, 50 ppm in feed.
Where [11] appears, read: experiment set 3, 50 ppm in feed.
The mark [12] stands for this setting: experiment set 4, 50 ppm in feed.
Where [13] appears, read: experiment set 5, 50 ppm in feed.

Read-outs that look alike come from different tables or passages of the source.

Take `CC1(C)S[C@@H]2[C@H](NC(=O)Cc3ccccc3)C(=O)N2[C@H]1C(=O)O` [Penicillin]: the results for the “Growth of S.T. in the presence of the test compound” value with Salmonella typhimurium (6.4 ppm) and in the experiment on Salmonella typhimurium (64 ppm) were “+” and “-”, respectively. The “Growth of Strep A7 in the presence of the test compound” value (“Growth of Strep A7” for short) in [1] (6.4 ppm) and in experiment [1] (64 ppm) was “-” throughout. For the same compound, the “Growth of Cp in the presence of the test compound” value (“Growth of Cp” for short) in experiment [2] (6.4 ppm) and in experiment [2] (64 ppm) was “+” each time. For the same compound, the “Growth of Strep C15 in the presence of the test compound” value (shortened to “Growth of Strep C15”) in experiment [3] (6.4 ppm) and in [3] (64 ppm) was “-” throughout. The “Growth of E.C. 046 in the presence of the test compound” value is reported as “+” in [4] (6.4 ppm) and “-” in [4] (64 ppm). The “Growth of Bf in the presence of the test compound” value (shortened to “Growth of Bf”) in [5] (6.4 ppm) was “+”; in [5] (64 ppm) it was “-”. The “feed efficiency (% better or worse than control)” value in [6] (setting [9]) is listed as 5.5%; in experiment [6] (setting [10]), 32%; in [6] (setting [11]) it was 13%; in experiment [6] (setting [12]), 11%; in [6] (setting [13]) it was 21%. Also, the “weight gain (% better or worse than control)” value in [6] (setting [9]) is given as 20%; in experiment [6] (setting [10]) it was 40%; in experiment [6] (setting [11]) it was 35%; in experiment [6] (setting [12]), 19%; in experiment [6] (setting [13]), 50%. Further, the “Growth of E.C. 324 in the presence of the test compound” value in experiment [7] (6.4 ppm) is reported as “+”; in [7] (64 ppm) it was “-”.
Turning to Gentamicin, the “Growth of S.T. in the presence of the test compound” value in the experiment with Salmonella typhimurium (6.4 ppm) and in the experiment on Salmonella typhimurium (64 ppm) was “-” each time. Also, the “Growth of Strep A7” value in experiment [1] (6.4 ppm) and in [1] (64 ppm) was “-” throughout. In addition, the “Growth of Cp” value in experiment [2] (6.4 ppm) and in experiment [2] (64 ppm) was “+” each time. The “Growth of Strep C15” value in [3] (6.4 ppm) and in experiment [3] (64 ppm) was “-” in each case. Also, the “Growth of E.C. 046 in the presence of the test compound” value in experiment [4] (6.4 ppm) is given as “+”; in experiment [4] (64 ppm) it was “-”. Further, the “Growth of Bf” value in [5] (6.4 ppm) and in experiment [5] (64 ppm) was “-” each time. Moreover, the “feed efficiency (% better or worse than control)” value in [6] (setting [11]) worked out at 15%. Also, the “weight gain (% better or worse than control)” value in experiment [6] (setting [11]) stood at 32%. Also, the “Growth of E.C. 324 in the presence of the test compound” value in experiment [7] (6.4 ppm) is reported as “+”; in experiment [7] (64 ppm), “-”.
Take `CN(C)[C@@H]1C(O)=C(C(N)=O)C(=O)[C@@]2(O)C(O)=C3C(=O)c4c(O)ccc(Cl)c4[C@@](C)(O)[C@H]3C[C@@H]12` [Chlortetracycline]: the “Growth of S.T. in the presence of the test compound” value in the experiment on Salmonella typhimurium (6.4 ppm) and with Salmonella typhimurium (64 ppm) was “-” in each case. The “Growth of Strep A7” value in [1] (6.4 ppm) and in experiment [1] (64 ppm) was “-” in each case. Also, the “Growth of Cp” value in [2] (6.4 ppm) and in experiment [2] (64 ppm) was “+” throughout. Also, the “Growth of Strep C15” value in experiment [3] (6.4 ppm) and in experiment [3] (64 ppm) was “-” each time. The figures for the “Growth of E.C. 046 in the presence of the test compound” value in [4] (6.4 ppm) and in experiment [4] (64 ppm) were “+” and “-”, respectively. Besides, the figures for the “Growth of Bf” value in experiment [5] (6.4 ppm) and in [5] (64 ppm) were “+” and “-”, respectively. For the same compound, the results for the “Growth of E.C. 324 in the presence of the test compound” value in experiment [7] (6.4 ppm) and in experiment [7] (64 ppm) were “+” and “-”, respectively.
Usually inhibition stands for the change of the read-out against control, counted positive when it falls. Regarding `Clc1ccc(C2=Nc3ccccc3NC2c2ccc(Cl)cc2Cl)c(Cl)c1` (stereo not shown) [Example 6, 2,3-di(2,4-dichlorophenyl)-1,2-dihydroquinoxaline], in experiment [8], the inhibition at 0.1 ppm stood at 60% and the inhibition at 10 ppm was determined as 100%.
On to `CCC[C@@H]1C[C@@H](C(=O)N[C@@H]([C@H]2O[C@H](SC)[C@H](O)[C@@H](O)[C@H]2O)[C@@H](C)O)N(C)C1` [Lincomycin], for which the “Growth of S.T. in the presence of the test compound” value in the experiment with Salmonella typhimurium (6.4 ppm) and with Salmonella typhimurium (64 ppm) was “+” in each case. The “Growth of Strep A7” value in [1] (6.4 ppm) and in experiment [1] (64 ppm) was “-” in each case. Moreover, the “Growth of Cp” value in [2] (6.4 ppm) and in [2] (64 ppm) was “+” throughout. For the same compound, the “Growth of Strep C15” value in [3] (6.4 ppm) and in experiment [3] (64 ppm) was “-” in each case. Further, the “Growth of E.C. 046 in the presence of the test compound” value in experiment [4] (6.4 ppm) and in [4] (64 ppm) was “+” throughout. In addition, the “Growth of Bf” value in experiment [5] (6.4 ppm) and in experiment [5] (64 ppm) was “-” throughout. Besides, the “feed efficiency (% better or worse than control)” value in experiment [6] (setting [9]) was 12%. In addition, in experiment [6] (setting [9]), the “weight gain (% better or worse than control)” value was determined as 20%. In addition, the “Growth of E.C. 324 in the presence of the test compound” value in [7] (6.4 ppm) and in experiment [7] (64 ppm) was “+” each time.
Consider Polymyxin, for which the “Growth of S.T. in the presence of the test compound” value with Salmonella typhimurium (6.4 ppm) and in the experiment with Salmonella typhimurium (64 ppm) was “-” in each case. Besides, the “Growth of Strep A7” value in experiment [1] (6.4 ppm) is reported as “+”; in experiment [1] (64 ppm), “-”. Besides, the “Growth of Cp” value in experiment [2] (6.4 ppm) and in experiment [2] (64 ppm) was “+” throughout. In addition, the “Growth of Strep C15” value in experiment [3] (6.4 ppm) and in experiment [3] (64 ppm) was “-” in each case. For the same compound, the “Growth of E.C. 046 in the presence of the test compound” value in experiment [4] (6.4 ppm) and in [4] (64 ppm) was “-” each time. Besides, the “Growth of Bf” value in [5] (6.4 ppm) is given as “+”; in experiment [5] (64 ppm), “-”. The “feed efficiency (% better or worse than control)” value in experiment [6] (setting [12]) stood at 6%. In addition, the “weight gain (% better or worse than control)” value in experiment [6] (setting [12]) is reported as -3%. In addition, the “Growth of E.C. 324 in the presence of the test compound” value in [7] (6.4 ppm) and in [7] (64 ppm) was “-” in each case.
With `CC[C@H]1OC(=O)C[C@@H](O)[C@H](C)[C@@H](O[C@@H]2O[C@H](C)[C@@H](O[C@H]3C[C@@](C)(O)[C@@H](O)[C@H](C)O3)[C@H](N(C)C)[C@H]2O)[C@@H](CC=O)C[C@@H](C)C(=O)/C=C/C(C)=C/[C@@H]1CO[C@@H]1O[C@H](C)[C@@H](O)[C@@H](OC)[C@H]1OC` [Tylosin], the “Growth of S.T. in the presence of the test compound” value in the experiment on Salmonella typhimurium (6.4 ppm) and in the experiment on Salmonella typhimurium (64 ppm) was “+” in each case. The “Growth of Strep A7” value in [1] (6.4 ppm) and in experiment [1] (64 ppm) was “-” in each case. The “Growth of Cp” value is reported as “+” in [2] (6.4 ppm) and “-” in experiment [2] (64 ppm). In addition, the “Growth of Strep C15” value in [3] (6.4 ppm) and in experiment [3] (64 ppm) was “-” throughout. The “Growth of E.C. 046 in the presence of the test compound” value in [4] (6.4 ppm) and in [4] (64 ppm) was “+” in each case. The “Growth of Bf” value in experiment [5] (6.4 ppm) and in [5] (64 ppm) was “-” each time. Besides, the “Growth of E.C. 324 in the presence of the test compound” value in experiment [7] (6.4 ppm) and in experiment [7] (64 ppm) was “+” in each case.
For the compound `CC[C@H]1OC(=O)[C@H](C)[C@@H](O[C@H]2C[C@@](C)(OC)[C@@H](O)[C@H](C)O2)[C@H](C)[C@@H](O[C@@H]2O[C@H](C)C[C@H](N(C)C)[C@H]2O)[C@](C)(O)C[C@@H](C)C(=O)[C@H](C)[C@@H](O)[C@]1(C)O` [Erythromycin], the “Growth of S.T. in the presence of the test compound” value is “+” in the experiment on Salmonella typhimurium (6.4 ppm) and “-” in the experiment on Salmonella typhimurium (64 ppm). Besides, the “Growth of Strep A7” value in [1] (6.4 ppm) and in experiment [1] (64 ppm) was “-” in each case. Moreover, the “Growth of Cp” value in [2] (6.4 ppm) and in experiment [2] (64 ppm) was “+” each time. Further, the “Growth of Strep C15” value in experiment [3] (6.4 ppm) and in [3] (64 ppm) was “-” throughout. Moreover, the “Growth of E.C. 046 in the presence of the test compound” value is given as “+” in experiment [4] (6.4 ppm) and “-” in experiment [4] (64 ppm). Moreover, the “Growth of Bf” value in [5] (6.4 ppm) was “+”; in experiment [5] (64 ppm), “-”. Also, the “Growth of E.C. 324 in the presence of the test compound” value in experiment [7] (6.4 ppm) and in experiment [7] (64 ppm) was “+” in each case.
For the compound `Clc1ccc(C2=Nc3cc(Cl)c(Cl)cc3NC2c2ccc(Cl)cc2Cl)c(Cl)c1` (stereo not shown) [Example 3, 2,3-di(2,4-dichlorophenyl)-6,7-dichloro-1,2-dihydroquinoxaline], in experiment [8], the inhibition at 0.1 ppm amounted to 88.6% and the inhibition at 10 ppm is 98%.

Source of the values: US4803209A, “Substituted 2,3-diphenyl-1,2-dihydroquinoxalines” (International Minerals & Chemical Corp., priority 1987, dated 1989).
